Measured values: PubChem BioAssay AID256 (DTP/NCI, 2004)
Several values for one entry are separate records, joined by “and”; a condition that tells them apart may be missing. Equal values may be shown once. Inconclusive results and toxic doses are left out. Rule for the calls: active = survival T/C of 150% or more; inactive = T/C below 125% in these data.

Test system: CD2F1 mice, L1210 leukemia ip, survival T/C
Test: NCI In Vivo Anticancer Drug Screen. Data for tumor model L1210 Leukemia (intraperitoneal) in CD2F1 (CDF1) mice
Settings: higher = longer survival
In short: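 Implant tumor; dose compound or vehicle; measure endpoint in both groups; report treated divided by control.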

[1] = endpoint: mean survival time, dose: 2.5 mg/kg/injection, schedule: Q01DX009 (ip), vehicle: Klucel (hydroxypropylcellulose) (HPC)
[2] = endpoint: mean survival time, dose: 5.0 mg/kg/injection, schedule: Q01DX009 (ip), vehicle: Klucel (hydroxypropylcellulose) (HPC)
[3] = endpoint: mean survival time, dose: 10.0 mg/kg/injection, schedule: Q01DX009 (ip), vehicle: Klucel (hydroxypropylcellulose) (HPC)
[4] = endpoint: mean survival time, dose: 25.0 mg/kg/injection, schedule: Q01DX009 (ip), vehicle: saline with Tween-80
[5] = endpoint: mean survival time, dose: 50.0 mg/kg/injection, schedule: Q01DX009 (ip), vehicle: saline with Tween-80
[6] = endpoint: mean survival time, dose: 100.0 mg/kg/injection, schedule: Q01DX001 (ip), vehicle: saline with Tween-80
[7] = endpoint: mean survival time, dose: 100.0 mg/kg/injection, schedule: Q01DX009 (ip), vehicle: saline with Tween-80
[8] = endpoint: mean survival time, dose: 400.0 mg/kg/injection, schedule: Q01DX001 (ip), vehicle: saline with Tween-80
[9] = endpoint: mean survival time, dose: 100.0 mg/kg/injection, schedule: Q04DX003 (ip), vehicle: saline

Measured: T/C

CC1(C)OCC(C2CCC3(C)C4=CCC5C(C)(C)C(O)CCC5(C)C4CCC23C)CC(O)C1O (configuration not stated)
inactive: [1] 101 % of control | [2] 95 % of control | [3] 97 % of control

O=C=Nc1ccc(N=Nc2ccccc2)cc1
inactive: [4] 89 % of control | [5] 88 % of control | [6] 95 % of control | [7] 98 % of control | [8] 90 % of control

COc1cc2c(cc1OC)-c1nc(N)sc1CC2
inactive: endpoint: mean survival time, dose: 100.0 mg/kg/injection, schedule: Q04DX002 (ip), vehicle: saline with Tween-80 107 % of control | endpoint: mean survival time, dose: 200.0 mg/kg/injection, schedule: Q04DX002 (ip), vehicle: saline with Tween-80 98 % of control | endpoint: mean survival time, dose: 400.0 mg/kg/injection, schedule: Q04DX002 (ip), vehicle: saline with Tween-80 103 % of control

CCOC(=O)C(CC1OCCO1)C1=NC(C)(C)CC(C)O1 (configuration not stated)
inactive: endpoint: mean survival time, dose: 100.0 mg/kg/injection, schedule: Q01DX001 (ip), vehicle: acetone 93 % of control | endpoint: mean survival time, dose: 200.0 mg/kg/injection, schedule: Q01DX001 (ip), vehicle: acetone 94 % of control

O=C1OC(c2c[nH]c3ccccc23)c2ccccc21 (configuration not stated)
inactive: [6] 94 % of control | endpoint: mean survival time, dose: 200.0 mg/kg/injection, schedule: Q01DX001 (ip), vehicle: saline with Tween-80 94 % of control | [8] 87 % of control

CCC(CC)N=C(N)N
inactive: [4] 100 % of control | endpoint: mean survival time, dose: 25.0 mg/kg/injection, schedule: Q04DX003 (ip), vehicle: saline 100 % of control | [5] 93 % of control | endpoint: mean survival time, dose: 50.0 mg/kg/injection, schedule: Q04DX003 (ip), vehicle: saline 97 % of control | [7] 98 % of control | [9] 94 % of control

CCOC1=Cc2c(oc3c(C(C)(C)C)cc(OCC)cc23)OC(C(C)(C)C)=C1
inactive: endpoint: median survival time, dose: 1.56 mg/kg/injection, schedule: Q01DX009 (ip), vehicle: saline with Tween-80 95 % of control and 102 % of control | endpoint: median survival time, dose: 3.12 mg/kg/injection, schedule: Q01DX009 (ip), vehicle: saline with Tween-80 95 % of control and 102 % of control | endpoint: median survival time, dose: 6.25 mg/kg/injection, schedule: Q01DX009 (ip), vehicle: saline with Tween-80 101 % of control and 102 % of control | endpoint: median survival time, dose: 12.5 mg/kg/injection, schedule: Q01DX009 (ip), vehicle: saline with Tween-80 98 % of control and 103 % of control | endpoint: median survival time, dose: 25.0 mg/kg/injection, schedule: Q01DX009 (ip), vehicle: saline with Tween-80 98 % of control and 102 % of control | endpoint: median survival time, dose: 50.0 mg/kg/injection, schedule: Q01DX009 (ip), vehicle: saline with Tween-80 114 % of control and 98 % of control

Cn1c(=O)c2[nH]c(NCc3ccccc3)nc2n(C)c1=O
inactive: endpoint: mean survival time, dose: 12.5 mg/kg/injection, schedule: Q01DX005 (ip), vehicle: distilled water + Tween-80 93 % of control | endpoint: mean survival time, dose: 25.0 mg/kg/injection, schedule: Q01DX005 (ip), vehicle: distilled water + Tween-80 90 % of control | endpoint: mean survival time, dose: 50.0 mg/kg/injection, schedule: Q01DX005 (ip), vehicle: distilled water + Tween-80 90 % of control | endpoint: mean survival time, dose: 100.0 mg/kg/injection, schedule: Q01DX005 (ip), vehicle: distilled water + Tween-80 94 % of control | endpoint: mean survival time, dose: 200.0 mg/kg/injection, schedule: Q01DX005 (ip), vehicle: distilled water + Tween-80 90 % of control

O=C(O)CSc1cc(Cl)ccc1Cl
inactive: endpoint: mean survival time, dose: 12.5 mg/kg/injection, schedule: Q04DX003 (ip), vehicle: Klucel (hydroxypropylcellulose) (HPC) 95 % of control | endpoint: mean survival time, dose: 25.0 mg/kg/injection, schedule: Q04DX003 (ip), vehicle: Klucel (hydroxypropylcellulose) (HPC) 98 % of control | endpoint: mean survival time, dose: 50.0 mg/kg/injection, schedule: Q04DX003 (ip), vehicle: Klucel (hydroxypropylcellulose) (HPC) 100 % of control | endpoint: mean survival time, dose: 100.0 mg/kg/injection, schedule: Q04DX003 (ip), vehicle: Klucel (hydroxypropylcellulose) (HPC) 100 % of control

CC(=O)Oc1c[nH]c(=O)[nH]c1=O
inactive: endpoint: mean survival time, dose: 12.5 mg/kg/injection, schedule: Q01DX009 (ip), vehicle: distilled water + Tween-80 97 % of control and 112 % of control | endpoint: mean survival time, dose: 25.0 mg/kg/injection, schedule: Q01DX009 (ip), vehicle: distilled water + Tween-80 97 % of control and 98 % of control | endpoint: mean survival time, dose: 50.0 mg/kg/injection, schedule: Q01DX009 (ip), vehicle: distilled water + Tween-80 102 % of control and 110 % of control | endpoint: mean survival time, dose: 100.0 mg/kg/injection, schedule: Q01DX009 (ip), vehicle: distilled water + Tween-80 114 % of control and 105 % of control | endpoint: mean survival time, dose: 200.0 mg/kg/injection, schedule: Q01DX009 (ip), vehicle: distilled water + Tween-80 114 % of control and 105 % of control | endpoint: mean survival time, dose: 400.0 mg/kg/injection, schedule: Q01DX009 (ip), vehicle: distilled water + Tween-80 117 % of control and 124 % of control

CC(=O)NCCSSCCCCS(=O)O
inactive: endpoint: median survival time, dose: 25.0 mg/kg/injection, schedule: Q01DX009 (ip), vehicle: suspension in saline 93 % of control | endpoint: median survival time, dose: 50.0 mg/kg/injection, schedule: Q01DX009 (ip), vehicle: suspension in saline 100 % of control | endpoint: median survival time, dose: 100.0 mg/kg/injection, schedule: Q01DX009 (ip), vehicle: suspension in saline 96 % of control | endpoint: median survival time, dose: 200.0 mg/kg/injection, schedule: Q01DX009 (ip), vehicle: suspension in saline 100 % of control | endpoint: median survival time, dose: 400.0 mg/kg/injection, schedule: Q01DX009 (ip), vehicle: suspension in saline 114 % of control

COc1cc2cccnc2c2[nH]cc(C(=O)O)c(=O)c12
inactive: endpoint: mean survival time, dose: 100.0 mg/kg/injection, schedule: Q01DX001 (ip), vehicle: saline 107 % of control | [7] 97 % of control | endpoint: mean survival time, dose: 200.0 mg/kg/injection, schedule: Q01DX001 (ip), vehicle: saline 100 % of control | endpoint: mean survival time, dose: 400.0 mg/kg/injection, schedule: Q01DX001 (ip), vehicle: saline 97 % of control

O=S(=O)(O)SCc1ccccc1CSS(=O)(=O)O
inactive: [9] 96 % of control | endpoint: mean survival time, dose: 200.0 mg/kg/injection, schedule: Q04DX003 (ip), vehicle: saline 101 % of control | endpoint: mean survival time, dose: 400.0 mg/kg/injection, schedule: Q04DX003 (ip), vehicle: saline 108 % of control

C(CC1CO1)C1CO1 (configuration not stated)
inactive: [1] 98 % of control and 104 % of control | [2] 98 % of control and 104 % of control | [3] 92 % of control and 96 % of control | endpoint: mean survival time, dose: 20.0 mg/kg/injection, schedule: Q01DX009 (ip), vehicle: Klucel (hydroxypropylcellulose) (HPC) 98 % of control and 104 % of control | endpoint: mean survival time, dose: 40.0 mg/kg/injection, schedule: Q01DX009 (ip), vehicle: Klucel (hydroxypropylcellulose) (HPC) 95 % of control and 98 % of control | endpoint: mean survival time, dose: 49.5 mg/kg/injection, schedule: Q01DX009 (ip), vehicle: Klucel (hydroxypropylcellulose) (HPC) 122 % of control | endpoint: mean survival time, dose: 80.0 mg/kg/injection, schedule: Q01DX009 (ip), vehicle: Klucel (hydroxypropylcellulose) (HPC) 96 % of control and 98 % of control

Cc1[se]c2ccccc2[n+]1C
inactive: endpoint: mean survival time, dose: 75.0 mg/kg/injection, schedule: Q01DX001 (ip), vehicle: saline 98 % of control | endpoint: mean survival time, dose: 150.0 mg/kg/injection, schedule: Q01DX001 (ip), vehicle: saline 107 % of control

CCCC[P+](C)(CC[P+](C)(c1ccccc1)c1ccccc1)c1ccccc1 (configuration not stated)
inactive: endpoint: mean survival time, dose: 6.25 mg/kg/injection, schedule: Q04DX002 (ip), vehicle: saline 104 % of control | endpoint: mean survival time, dose: 12.5 mg/kg/injection, schedule: Q04DX002 (ip), vehicle: saline 89 % of control

COc1ccc(N=C/C=C/c2ccccc2)cc1
inactive: [7] 97 % of control | endpoint: mean survival time, dose: 100.0 mg/kg/injection, schedule: Q04DX003 (ip), vehicle: saline sonified 96 % of control | endpoint: mean survival time, dose: 200.0 mg/kg/injection, schedule: Q01DX009 (ip), vehicle: saline with Tween-80 89 % of control | endpoint: mean survival time, dose: 200.0 mg/kg/injection, schedule: Q04DX003 (ip), vehicle: saline sonified 103 % of control | endpoint: mean survival time, dose: 400.0 mg/kg/injection, schedule: Q01DX009 (ip), vehicle: saline with Tween-80 90 % of control | endpoint: mean survival time, dose: 400.0 mg/kg/injection, schedule: Q04DX003 (ip), vehicle: saline sonified 97 % of control
